Laboratory results taken from ChEMBL document CHEMBL2384969, “Discovery and Optimization of Potent GPR40 Full Agonists Containing Tricyclic Spirocycles” (ACS Med Chem Lett, 2013).
Values belong to the compound of their own block, whether it stands above or below them. Activity calls are given as the source filed them. The calls are words filed in the database; no cut-off is given here.

How the values were obtained:
[1] = target: T1, Free fatty acid receptor 1 (Homo sapiens, UniProt O14842); assay: Agonist activity at human FFA1 receptor expressed in CHO cell membranes after 4 hrs by aequorin bioluminescence assay; format: cell-based
[2] = target: T1, Free fatty acid receptor 1; assay: Agonist activity at human FFA1 receptor expressed in CHO cell membranes after 4 hrs by aequorin bioluminescence assay relative to AM-1638; format: cell-based
[3] = target: D(1A) dopamine receptor (Homo sapiens) (UniProt P21728); assay: Inhibition of human dopamine D1 receptor at 10 uM relative to control
[4] = target: Histamine H4 receptor (Homo sapiens) (UniProt Q9H3N8); assay: Inhibition of human histamine H4 receptor at 10 uM relative to control
[5] = Volume of distribution at steady state in Sprague-Dawley rat at 0.5 mg/kg, iv; format: ADME, organism-based; design: dose 0.5 mg/kg, route intravenous; settings: in vivo, read-out: Vdss
Mus musculus [6] = assay: Antidiabetic activity in high-fat diet fed streptozotocin-induced C57BL/6J mouse at 60 mg/kg, po by oral glucose tolerance test; format: functional, organism-based; design: dose 60 mg/kg
[7] = target: T2, Thyrotropin-releasing hormone receptor (Homo sapiens) (UniProt P34981); assay: Inhibition of human TRH1 receptor at 10 uM relative to control
T2 sequence (whole entry): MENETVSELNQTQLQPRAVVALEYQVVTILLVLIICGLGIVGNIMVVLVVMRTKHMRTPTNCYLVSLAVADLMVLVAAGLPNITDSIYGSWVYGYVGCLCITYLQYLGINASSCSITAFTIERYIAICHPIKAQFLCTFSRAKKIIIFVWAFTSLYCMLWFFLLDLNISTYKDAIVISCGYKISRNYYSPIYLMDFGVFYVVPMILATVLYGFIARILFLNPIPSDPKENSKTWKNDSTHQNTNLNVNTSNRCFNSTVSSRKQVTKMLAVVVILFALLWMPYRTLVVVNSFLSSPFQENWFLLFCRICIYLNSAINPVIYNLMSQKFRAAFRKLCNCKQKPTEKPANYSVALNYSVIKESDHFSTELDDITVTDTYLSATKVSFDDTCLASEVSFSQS

[8] = target: Sodium-dependent noradrenaline transporter (Homo sapiens) (UniProt P23975); assay: Inhibition of human norepinephrine transporter at 10 uM relative to control
[9] = target: Kappa-type opioid receptor (Rattus norvegicus) (UniProt P34975); assay: Inhibition of rat kappa opioid receptor at 10 uM relative to control
[10] = Volume of distribution at steady state in cynomolgus monkey at 0.5 mg/kg, iv; format: ADME, organism-based, Macaca fascicularis; design: dose 0.5 mg/kg, route intravenous; settings: in vivo, read-out: Vdss
[11] = target: T3, Gastrin/cholecystokinin type B receptor (Homo sapiens) (UniProt P32239); assay: Inhibition of human CCK2 receptor at 10 uM relative to control
T3 sequence (whole entry): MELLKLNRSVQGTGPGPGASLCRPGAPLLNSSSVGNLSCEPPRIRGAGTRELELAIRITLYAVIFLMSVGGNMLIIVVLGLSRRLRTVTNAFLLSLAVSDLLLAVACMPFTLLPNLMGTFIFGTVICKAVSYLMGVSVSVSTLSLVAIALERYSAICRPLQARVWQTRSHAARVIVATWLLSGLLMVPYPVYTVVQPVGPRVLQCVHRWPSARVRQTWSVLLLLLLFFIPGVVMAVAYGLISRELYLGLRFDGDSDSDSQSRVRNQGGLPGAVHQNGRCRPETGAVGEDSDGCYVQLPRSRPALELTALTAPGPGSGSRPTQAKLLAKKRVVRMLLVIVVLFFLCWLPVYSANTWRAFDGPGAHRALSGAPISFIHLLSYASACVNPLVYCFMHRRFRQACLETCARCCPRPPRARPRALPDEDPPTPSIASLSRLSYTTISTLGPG

[12] = Oral bioavailability in Sprague-Dawley rat at 2 mg/kg; format: ADME, organism-based; settings: in vivo
[13] = target: T4, Adenosine receptor A1 (Homo sapiens) (UniProt P30542); assay: Inhibition of human adenosine A1 receptor at 10 uM relative to control
T4 sequence (whole entry): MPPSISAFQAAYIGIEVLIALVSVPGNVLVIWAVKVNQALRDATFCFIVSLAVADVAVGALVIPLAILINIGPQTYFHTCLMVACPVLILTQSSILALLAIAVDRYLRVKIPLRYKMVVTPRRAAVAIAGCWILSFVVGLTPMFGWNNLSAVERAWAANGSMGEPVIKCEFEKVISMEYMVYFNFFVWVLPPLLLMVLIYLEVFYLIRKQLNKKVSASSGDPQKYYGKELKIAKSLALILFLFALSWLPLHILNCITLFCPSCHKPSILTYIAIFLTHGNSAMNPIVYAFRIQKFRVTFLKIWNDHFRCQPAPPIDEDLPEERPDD

[14] = Half life in Sprague-Dawley rat at 0.5 mg/kg, iv; format: ADME, organism-based; design: dose 0.5 mg/kg, route intravenous; settings: in vivo
[15] = Clearance in Sprague-Dawley rat at 0.5 mg/kg, iv; format: ADME, organism-based; design: dose 0.5 mg/kg, route intravenous; settings: in vivo
[16] = Oral bioavailability in cynomolgus monkey at 2 mg/kg; format: ADME, organism-based, Macaca fascicularis; settings: in vivo
[17] = Half life in cynomolgus monkey at 0.5 mg/kg, iv; format: ADME, organism-based, Macaca fascicularis; design: dose 0.5 mg/kg, route intravenous; settings: in vivo
[18] = Clearance in cynomolgus monkey at 0.5 mg/kg, iv; format: ADME, organism-based, Macaca fascicularis; design: dose 0.5 mg/kg, route intravenous; settings: in vivo
Pancreatic islet [19] = assay: Potentiation of glucose-stimulated insulin secretion in mouse pancreatic islets at 0.01 uM to 10 uM; format: functional
[20] = target: Free fatty acid receptor 1 (Rattus norvegicus) (UniProt Q8K3T4); assay: Agonist activity at FFA1 receptor in Sprague-Dawley rat fetal intestinal cells assessed as stimulation of GLP1 secretion after 1 hr by ELISA
Mus musculus [21] = assay: Antidiabetic activity in high-fat diet fed streptozotocin-induced C57BL/6J mouse assessed as increase in insulin secretion at 30 mg/kg, po by oral glucose tolerance test; format: functional, organism-based; design: dose 30 mg/kg
[22] = target: Free fatty acid receptor 1 (Rattus norvegicus) (UniProt Q8K3T4); assay: Agonist activity at FFA1 receptor in Sprague-Dawley rat fetal intestinal cells assessed as stimulation of GIP secretion after 1 hr by ELISA
Pancreatic islet [23] = assay: Potentiation of glucose-stimulated insulin secretion in human pancreatic islets at 0.01 uM to 10 uM; format: functional
[24] = target: Free fatty acid receptor 1 (Rattus norvegicus) (UniProt Q8K3T4); assay: Agonist activity at FFA1 receptor in Sprague-Dawley rat fetal intestinal cells assessed as stimulation of GLP1 secretion after 1 hr by ELISA relative to AM-1638
[25] = target: T1, Free fatty acid receptor 1; assay: Positive cooperativite binding to human FFA1 receptor expressed in CHO cell membranes assessed as enhancement of specific binding of [3H]AMG 837 by reciprocal competition assay
Mus musculus [26] = assay: Antidiabetic activity in high-fat diet fed streptozotocin-induced C57BL/6J mouse assessed as improvement in glucose AUC at 30 mg/kg, po by oral glucose tolerance test relative to control; format: functional
[27] = target: Free fatty acid receptor 1 (Rattus norvegicus) (UniProt Q8K3T4); assay: Agonist activity at FFA1 receptor in Sprague-Dawley rat fetal intestinal cells assessed as stimulation of GIP secretion after 1 hr by ELISA relative to AM-1638

D(1A) dopamine receptor (Homo sapiens), sequence (P21728 whole entry): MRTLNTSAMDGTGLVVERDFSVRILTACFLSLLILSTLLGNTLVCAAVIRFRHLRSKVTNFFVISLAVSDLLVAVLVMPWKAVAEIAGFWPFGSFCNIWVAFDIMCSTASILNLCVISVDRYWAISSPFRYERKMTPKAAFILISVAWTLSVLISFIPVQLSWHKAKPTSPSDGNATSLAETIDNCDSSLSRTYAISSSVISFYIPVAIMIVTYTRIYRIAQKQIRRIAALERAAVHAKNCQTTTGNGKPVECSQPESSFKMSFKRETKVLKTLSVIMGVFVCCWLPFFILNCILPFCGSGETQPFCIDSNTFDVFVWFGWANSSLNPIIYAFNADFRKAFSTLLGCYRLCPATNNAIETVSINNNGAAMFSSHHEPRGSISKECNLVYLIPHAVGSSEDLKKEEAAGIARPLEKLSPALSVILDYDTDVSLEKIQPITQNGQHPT
Free fatty acid receptor 1 (Rattus norvegicus), sequence (Q8K3T4 whole entry): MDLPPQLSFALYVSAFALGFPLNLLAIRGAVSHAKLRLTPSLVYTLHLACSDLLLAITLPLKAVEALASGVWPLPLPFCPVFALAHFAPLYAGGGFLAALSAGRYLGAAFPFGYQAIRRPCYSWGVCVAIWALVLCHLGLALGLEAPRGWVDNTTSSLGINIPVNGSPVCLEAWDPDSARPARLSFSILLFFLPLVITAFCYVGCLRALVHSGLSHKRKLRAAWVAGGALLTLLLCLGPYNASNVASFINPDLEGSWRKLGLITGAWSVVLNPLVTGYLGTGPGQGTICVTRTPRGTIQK
Sodium-dependent noradrenaline transporter (Homo sapiens), sequence (P23975 whole entry): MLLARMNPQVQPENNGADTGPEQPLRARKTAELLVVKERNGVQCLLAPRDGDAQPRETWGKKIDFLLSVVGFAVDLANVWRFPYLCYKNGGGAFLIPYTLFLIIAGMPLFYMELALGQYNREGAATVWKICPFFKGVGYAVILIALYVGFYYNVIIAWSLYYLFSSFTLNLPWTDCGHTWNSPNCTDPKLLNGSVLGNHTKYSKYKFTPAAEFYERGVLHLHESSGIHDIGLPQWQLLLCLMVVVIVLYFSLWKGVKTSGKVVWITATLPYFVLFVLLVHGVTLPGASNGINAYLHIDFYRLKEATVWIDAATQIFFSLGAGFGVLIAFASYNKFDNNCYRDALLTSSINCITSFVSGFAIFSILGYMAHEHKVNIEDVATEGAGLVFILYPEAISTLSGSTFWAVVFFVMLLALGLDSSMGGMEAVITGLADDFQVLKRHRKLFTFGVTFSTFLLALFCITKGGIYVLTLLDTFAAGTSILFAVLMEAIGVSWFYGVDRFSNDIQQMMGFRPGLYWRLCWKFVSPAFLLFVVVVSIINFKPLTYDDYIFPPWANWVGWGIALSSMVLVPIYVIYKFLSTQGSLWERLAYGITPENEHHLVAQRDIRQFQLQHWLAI
T1 sequence (O14842 whole entry): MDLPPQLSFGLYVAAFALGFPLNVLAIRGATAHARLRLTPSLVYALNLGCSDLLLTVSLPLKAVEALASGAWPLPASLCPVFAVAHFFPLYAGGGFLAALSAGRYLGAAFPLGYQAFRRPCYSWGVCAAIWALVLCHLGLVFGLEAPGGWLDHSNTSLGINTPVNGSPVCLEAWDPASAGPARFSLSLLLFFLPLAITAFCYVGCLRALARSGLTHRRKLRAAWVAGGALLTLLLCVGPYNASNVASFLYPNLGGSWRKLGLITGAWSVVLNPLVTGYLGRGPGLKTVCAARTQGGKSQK
Kappa-type opioid receptor (Rattus norvegicus), sequence (P34975 whole entry): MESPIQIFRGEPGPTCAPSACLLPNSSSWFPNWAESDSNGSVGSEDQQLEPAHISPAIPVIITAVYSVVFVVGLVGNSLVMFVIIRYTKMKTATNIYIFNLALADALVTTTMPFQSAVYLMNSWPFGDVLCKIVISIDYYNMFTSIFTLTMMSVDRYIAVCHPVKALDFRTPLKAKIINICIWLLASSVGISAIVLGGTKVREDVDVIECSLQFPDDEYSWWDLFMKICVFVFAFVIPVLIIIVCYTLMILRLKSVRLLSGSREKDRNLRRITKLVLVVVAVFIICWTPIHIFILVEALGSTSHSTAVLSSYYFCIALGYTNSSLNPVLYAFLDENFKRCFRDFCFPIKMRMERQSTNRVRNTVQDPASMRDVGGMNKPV

Compound: COc1ccc(F)c(-c2ccc(COc3ccc4c(c3)[C@@]3(CC4)C[C@H]3C(=O)O)cc2C2=CCCC2(C)C)c1
EC50 [1]: 3780 nM
Emax [2]: 27%

Compound: COc1ccc(F)c(-c2ccc(COc3ccc4c(c3)[C@]3(CC4)C[C@H]3C(=O)O)cc2C2=CCCC2(C)C)c1
EC50 [1]: 180 nM
Emax [2]: 100%

Compound: COc1ccc(F)c(-c2ccc(COc3ccc4c(c3)[C@]3(CCC4)C[C@H]3C(=O)O)cc2[C@@H]2CCCC2(C)C)c1
EC50 [1]: 92 nM
Emax [2]: 101%

Compound: COc1ccc(F)c(-c2ccc(COc3ccc4c(c3)[C@]3(CC4)CC[C@H]3C(=O)O)cc2C2=CCCC2(C)C)c1
EC50 [1]: 520 nM
Emax [2]: 92%

Compound: COc1ccc(F)c(-c2ccc(COc3cccc([C@@H](CC(=O)O)C4CC4)c3)cc2C2=CCCC2(C)C)c1
inhibition [3]: > 70%
inhibition [4]: > 70%
Vd [5]: 1.1 L/kg
Activity (Mus musculus [6]): Active
inhibition [7]: > 70%
inhibition [8]: > 70%
inhibition [9]: > 70%
Vd [10]: 2 L/kg
inhibition [11]: > 70%
bioavailability [12]: 15%
inhibition [13]: > 70%

Compound: COc1ccc(F)c(-c2ccc(COc3ccc4c(c3)[C@@H]3[C@H](C4)[C@@H]3C(=O)O)cc2C2=CCCC2(C)C)c1
EC50 [1]: > 30000 nM
Emax [2]: 10%

Compound: COc1ccc(F)c(-c2ccc(COc3ccc4c(c3)[C@]3(CC4)C[C@H]3C(=O)O)cc2[C@H]2CCCC2(C)C)c1
EC50 [1]: 212 nM
Emax [2]: 104%

Compound: COc1ccc(F)c(-c2ccc(COc3ccc4c(c3)[C@H]3[C@@H](C4)[C@H]3C(=O)O)cc2C2=CCCC2(C)C)c1
EC50 [1]: > 30000 nM
Emax [2]: 17%

Compound: COc1ccc(F)c(-c2ccc(COc3ccc4c(c3)[C@@H]3[C@H](C4)[C@H]3C(=O)O)cc2C2=CCCC2(C)C)c1
EC50 [1]: > 30000 nM
Emax [2]: 15%

Compound: COc1ccc(F)c(-c2ccc(COc3ccc4c(c3)[C@@]3(CC4)C[C@@H]3C(=O)O)cc2C2=CCCC2(C)C)c1
EC50 [1]: > 30000 nM
Emax [2]: 12%

Compound: COc1ccc(F)c(-c2ccc(COc3ccc4c(c3)[C@]3(CC4)C[C@H]3C(=O)O)cc2[C@@H]2CCCC2(C)C)c1
Activity (Pancreatic islet [19]): Active
inhibition [3]: < 70%
Activity [20]: Active
inhibition [4]: < 70%
half-life [14]: 4.2 h
Vd [5]: 0.7 L/kg
Activity (Mus musculus [21]): Active
Activity [22]: Active
inhibition [7]: < 70%
Activity (Pancreatic islet [23]): Active
clearance [15]: 4.17 mL/min/kg
EC50 [1]: 81 nM
inhibition [8]: < 70%
inhibition [9]: < 70%
Vd [10]: 1.4 L/kg
bioavailability [16]: 69%
fold change (FC) [24]: 2
Activity [25]: Active
inhibition [11]: < 70%
Activity (Mus musculus [26]): 48%
Emax [2]: 101%
fold change (FC) [27]: 2
half-life [17]: 2.2 h
clearance [18]: 14 mL/min/kg
bioavailability [12]: 28%
inhibition [13]: < 70%

Other lines, results leading:

EC50 [1]: 350 nM
Emax [2]: 83%
Compound: COc1ccc(F)c(-c2ccc(COc3ccc4c(c3)[C@]3(CCC4)CC[C@H]3C(=O)O)cc2C2=CCCC2(C)C)c1

inhibition [3]: < 70%
inhibition [4]: < 70%
half-life [14]: 4.1 h
Vd [5]: 0.8 L/kg
inhibition [7]: < 70%
clearance [15]: 2.83 mL/min/kg
EC50 [1]: 105 nM
inhibition [8]: < 70%
inhibition [9]: < 70%
Vd [10]: 0.4 L/kg
bioavailability [16]: 44%
inhibition [11]: < 70%
Emax [2]: 90%
half-life [17]: 3.7 h
clearance [18]: 1.83 mL/min/kg
bioavailability [12]: 61%
inhibition [13]: < 70%
Compound: COc1cc(-c2ccc(COc3ccc4c(c3F)[C@]3(CCC4)C[C@H]3C(=O)O)cc2[C@@H]2CCCC2(C)C)c(F)cn1

EC50 [1]: 98 nM
Emax [2]: 90%
Compound: COc1ccc(F)c(-c2ccc(COc3ccc4c(c3F)[C@]3(CCC4)C[C@H]3C(=O)O)cc2[C@@H]2CCCC2(C)C)c1

EC50 [1]: > 30000 nM
Emax [2]: 5%
Compound: COc1ccc(F)c(-c2ccc(COc3ccc4c(c3)[C@]3(CC4)C[C@@H]3C(=O)O)cc2C2=CCCC2(C)C)c1

EC50 [1]: 1420 nM
Emax [2]: 99%
Compound: COc1ccc(F)c(-c2ccc(COc3ccc4c(c3)[C@H]3[C@@H](C4)[C@@H]3C(=O)O)cc2C2=CCCC2(C)C)c1

EC50 [1]: 150 nM
Emax [2]: 98%
Compound: COc1ccc(F)c(-c2ccc(COc3ccc4c(c3)[C@]3(CCC4)C[C@H]3C(=O)O)cc2C2=CCCC2(C)C)c1
